Measurements as given in patent US6242199A, “Assays for growth hormone secretagogue receptors” (Merck & Co., Inc., priority 1998, dated 2001).

Assays:
[1] = target: T1, growth hormone secretagogue receptor (GHSR), rat pituitary membranes (Rattus norvegicus, UniProt O08725); assay: [35S]-Compound A radioreceptor binding, rat pituitary membranes
T1 construct: from the Wistar male rats (150-200 g); from tissue; host or cells: pituitary glands of male Wistar rats (150-200 g), crude membranes
Procedure: [^35 S]-Compound A was prepared from an appropriate precursor, N-[1(R)-[(1,2-dihydrospiro[3H-indole-3,4'-piperidin]-1'-yl)-carbonyl]-2-(phenyl-methyloxy)ethyl]-2-amino-t-butoxycarbonyl-2-methylpropanamide, using methane [^35 S]sulfonyl chloride as described in Dean DC, et al., 1995, In: Allen J, Voges R (eds) Synthesis and Applications of Isotopically Labelled Compounds, John Wiley & Sons, New York, pp. 795-801, Purification by semi-preparative HPLC (Zorbax SB-phenyl column, 68% MeOH/water, 0.1% TFA, 5 ml/min) was followed by N-t-BOC cleavage using 15% trifluroacetic acid in dichloromethane (25° C., 3 hr) to give [methylsulfonyl-^35 S]Compound A in near quantitative yield. HPLC purification (Hamilton PRP-1 4.6×250 mm column, linear gradient of 50-75% methanol-water with 1 mM HCl over 30 min, 1.3 ml/min) provided the ligand in >99% radiochemical purity. The structure was established by HPLC coelution with unlabeled Compound A and by mass spectral analysis. The latter method also indicated a specific activity of ~1000 Ci/mmol.
Frozen anterior pituitary glands from male swine (50-80 Kg) or from the Wistar male rats (150-200 g) were homogenized in a tissue homogenizer in ice-cold buffer (50 mM Tris-HCl buffer, pH 7.4, 5 mM MgCl2, 2.5 mM EDTA, 0.1% bovine serum albumin and 30 μg/ml bacitracin). The homogenates were centrifuged for 5 min at 1,400×g and the resulting supernatants were then centrifuged at 34,000×g for 20 min. The pellets were resuspended in same buffer to a 1,500 μg protein/ml and stored at -80° C. Protein was determined by a Bio-Rad method (Bio-Rad Laboratories, Richmond, Calif.).
The standard binding solution contained: […] of 25 mM Tris-HCl buffer, pH 7.4, 10 mM MgCl2, 2.5 mM EDTA, and 100 pM [^35 S]-Compound A. Pituitary membranes (100 μl, 150 μg protein) were added to initiate the binding reaction. […] The filters were washed three times with 3-ml of ice-cold buffer (50 mM Tris-HCl, pH 7.4, 10 mM MgCl2, 2.5 mM EDTA and 0.015% Triton X-100) and the radioactivity on the filters were counted in Aquasol 2. […]

[2] = target: T2, swine growth hormone secretagogue receptor (Type I, clone 7-3) (Sus scrofa, UniProt Q95254); assay: [35S]-Compound A binding to COS-7 cell membranes transfected with swine GHSR clone 7-3
T2 construct: translation of the longest ORF encoded in clone 7-3 encodes a protein of 353 amino acids; expressed in transfected cells; host or cells: COS-7 (transient, Lipofectamine)
Procedure: Mammalian cells (COS-7) were transfected with GHSR expression plasmids using Lipofectamine (GIBCO-BRL; Hawley-Nelson, 1993, Focus 15:73). Transfections were performed in 60 mm dishes on 80% confluent cells (approximately 4×10^5 cells) with 8 μg of Lipofectamine and 32 μg of GHSR plasmid DNA.
Binding of [^35 S]-Compound A to swine pituitary membranes and crude membranes prepared from COS-7 cells transfected with GHSR expression plasmids was conducted. Crude cell membranes from COS-7 transfectants were prepared on ice, 48 hrs. post-transfection. Each 60 mm dish was washed twice with 3 ml of PBS, once with 1 ml homogenization buffer (50 mM Tris-HCl [pH 7.4], 5 mM MgCl2, 2.5 mM EDTA, 30 μg/ml bacitracin). 0.5 ml of homogenization buffer was added to each dish, cells were removed by scraping and then homogenized using a Polytron device (Brinkmann, Syosset, N.Y.; 3 bursts of 10 sec. at setting 4). The homogenate was then centrifuged for 20 min. at 11,000×g at 0° C. and the resulting crude membrane pellet (chiefly containing cell membranes and nuclei) was resuspended in homogenization buffer supplemented with 0.06% BSA (0.1 ml/60 mm dish) and kept on ice. Binding reactions were performed at 20° C. for 1 hr. in a total volume of 0.5 ml containing: 0.1 ml of membrane suspension, 10 μl of [^35 S]-Compound A (0.05 to 1 nM; specific activity approximately 900 Ci/mmol), 10 μl of competing drug and 380-390 μl of homogenization buffer. Bound radioligand was separated by rapid vacuum filtration (Brandel 48-well cell harvester) through GF/C filters pretreated for 1 hr. with 0.5% polyethylenimine. After application of the membrane suspension to the filter, the filters were washed 3 times with 3 ml each of ice cold 50 mM Tris-HCl [pH 7.4], 10 mM MgCl2, 2.5 mM EDTA and 0.015% Triton X-100, and the bound radioactivity on the filers was quantitated by scintillation counting. Specific binding (>90% of total) is defined as the difference between total binding and non-specific binding conducted in the presence of 50 nM unlabeled Compound A.

T2 sequence (Q95254 14-366): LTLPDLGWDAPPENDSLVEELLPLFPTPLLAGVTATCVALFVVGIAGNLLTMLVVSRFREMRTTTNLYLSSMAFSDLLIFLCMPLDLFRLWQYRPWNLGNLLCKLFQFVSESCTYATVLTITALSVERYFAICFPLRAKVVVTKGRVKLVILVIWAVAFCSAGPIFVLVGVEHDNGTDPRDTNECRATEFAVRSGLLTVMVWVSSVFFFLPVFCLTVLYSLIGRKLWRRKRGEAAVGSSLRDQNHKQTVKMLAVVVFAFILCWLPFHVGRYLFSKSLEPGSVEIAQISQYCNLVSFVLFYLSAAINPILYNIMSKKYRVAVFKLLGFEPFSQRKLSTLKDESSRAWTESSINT
T1 sequence (O08725 whole entry): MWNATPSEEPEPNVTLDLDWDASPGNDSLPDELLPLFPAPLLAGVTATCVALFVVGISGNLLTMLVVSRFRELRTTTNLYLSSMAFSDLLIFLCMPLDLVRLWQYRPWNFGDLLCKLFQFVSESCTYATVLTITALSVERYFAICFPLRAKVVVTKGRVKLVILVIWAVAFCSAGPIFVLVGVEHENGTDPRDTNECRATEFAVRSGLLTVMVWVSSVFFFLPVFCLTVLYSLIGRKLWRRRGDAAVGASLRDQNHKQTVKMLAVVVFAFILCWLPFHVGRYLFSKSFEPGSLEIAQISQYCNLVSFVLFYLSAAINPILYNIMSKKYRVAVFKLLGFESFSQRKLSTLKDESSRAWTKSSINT

For `CC(C)(N)C(=O)N[C@H](COCc1ccccc1)C(=O)N1CCC2(CC1)CN(S(C)(=O)=O)c1ccccc12` [Compound A, (N-[1(R)-[1,2-dihydro-1-methanesulfonlylspiro[3H-indole-3,4'-piperidin]-1'-yl)carbonyl]-2-(phenylmethyloxy)-ethyl]-2-amino-2-methyl-propanamide], the “specific binding of total binding” value ([1]; rat membranes, nonspecific in 500 nM unlabeled Compound A) was 45-60%, the Bmax ([1]; rat pituitary membranes, n=3) was 2.3±1.1 fmol/mg protein and the Kd ([1]; rat pituitary membranes, n=3) was 0.18 ± 0.009 nM. The inhibition at 0.05 µM ([2]; 1 h, 50 nM unlabeled Compound A, read-out: specific binding displaced by unlabeled Compound A) was over 90%, the “saturable binding, Bmax” value ([2]; clone 7-3 expressed transiently in COS-7 cells) was ~ 80 fmol/mg protein and the Kd ([2]; clone 7-3 expressed transiently in COS-7 cells, read-out: high affinity binding, KD) was about 0.2 nM. The “specific binding of total” value ([2]; nonspecific in presence of 50 nM unlabeled Compound A) was over 90%.
